From article PMC10666548, “Identification of the bacterial metabolite aerugine as potential trigger of human dopaminergic neurodegeneration” (Environment international, 2023) come the findings set out here.

Entries after “also recorded” stand apart in the source; their conditions may differ.

Experiment [1] concerns GABA neurons of C. elegans Punc-25. Briefly: C. elegans GABA neuron degeneration scoring (GFP-labelled neurons). The format is in vivo, Caenorhabditis elegans. The conditions noted are these: 48 h exposure. The method, then:
(§1) The strain BY200 Pdat-1::gfp (vtIs1), dat-1::GFP(vtls1) was kindly provided by the Blakely laboratory, Vanderbilt University Medical Center and the strain Punc-25:GFP was obtained from the Caenorhabditis Genetics Center (CGC, University of Minnesota, Minneapolis, MN, USA). The worms were maintained in nematode growth medium (NGM) plates that contain: 3 g/l NaCl, 17 g/l agar, 2.5 g/l peptone, 1 mM CaCl2, 5 mg/l cholesterol, 1 mM MgSO4, 25 mM potassium phosphate buffer (pH 6.0) with 1.25 ml nystatin and 50 mg/l streptomycin sulfate) and Escherichia coli (E. coli) OP50 strain was used as food ([Brenner, 1974]). […]
(§2) On day 2 and day 8, approximately, 20–30 worms per treatment were picked onto slides prepped with a 3% agarose pad, anesthetized with 5 μl of 3 mM levamisole hydrochloride ([Sulston et al., 1975]) and observed under an Olympus BX41 fluorescence microscope to determine morphology status according to novel Likert-like scale of degeneration as previously described ([Benedetto et al., 2010]).
(§3) Fig. 5. […] They were exposed to different aerugine concentrations and counted every 24 h. […] Differences on a given day were analyzed by ANOVA and found to be non-significant. […] The GFP-labelled neurons of 20–30 worms per condition were analyzed and scored for specific neurodegeneration. […] These scores were assessed to quantify the dopaminergic neurodegeneration caused be aerugine in vivo. […]

Experiment [2] relates to dopamine neurons of C. elegans BY200. Put plainly: C. elegans dopaminergic neurodegeneration scoring (GFP-labelled neurons). The experiment is classed as in vivo, Caenorhabditis elegans. The following applies: 48 h exposure. The method, then: as §1, §2, §3
For experiment [3], the system named is LUHMES neurons. Put plainly: LDH-release and resazurin reduction tests on d6 LUHMES. The format is cell-based, human. The conditions noted are these: 24 h. The protocol:
The assay was performed as described earlier ([Latta et al., 2000]). In brief, supernatants were transferred to an un-coated 96-wellplate and cells were lysed in 110 μl of phosphate buffered saline (PBS) with 0.1% Triton-X100 for 1 h at room temperature. Lactate dehydrogenase (LDH) activity was assessed in the supernatant and the cell lysate individually by combining 10 μl sample with 100 μl potassium phosphate buffer pH 7.5 containing 640 μM pyruvate and […] NADH. NADH was quantified by measuring the absorption at 340 nm over 15 min and its decline was proportional to the LDH content. LDH release was calculated as the ratio of LDHsupernatant/LDHsupernatant+lysate.
The assay was performed as described previously ([Schildknecht et al., 2009]). In brief, cells were stained with 10 μg/ml resazurin and incubated for 30 min at 37 °C and 5% CO2. The fluorescence of resazurin was detected with an excitation wavelength of 530 nm, using a 590 nm long-pass filter to record the emission. […]
Supplementary Figure S7: Viability endpoints measured on d6 LUHMES treated with aerugine Cultures of differentiated LUHMES neurons were exposed on d6 to serial dilutions of aerugine for 24 h. The cell viability (V), neurite area (NA) were assessed 24 h later by calcein-AM & H-33342 staining and high content imaging. Resazurin reduction and LDH release were measured subsequently. […]

For `OCC1CSC(c2ccccc2O)=N1` (stereo not shown) [aerugine, 2-[4-(hydroxymethyl)-4,5-dihydro-1,3-thiazol-2-yl]phenol], the “degeneration of GABA neurons” value in experiment [1] is “not affected”. The “DAergic neurons that lost their normal (fully) healthy phenotype” value in experiment [2] is “Up to 50%”. Moreover, the “degeneration of DA neurons” value in experiment [2] (L4 worms) is listed as “concentration-dependent degeneration of DA neurons; also recorded: specific neurodegeneration was observed”. Further, the “LDH-release and resazurin reduction viability” value in experiment [3] is “confirmed the single cell data, although with slightly less sensitivity”.
